Experimental data taken from PubChem BioAssay (NCI).
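Method: 48-hour compound exposure of cells in 96-well plates, five concentrations, linear interpolation of endpoints. GI50 is the concentration that inhibits growth by half. TGI: total growth inhibition.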

Key:
Test in all cases: NCI-60 cell line screen, 48 h
[1] = tested on: 786-0 renal
[2] = tested on: A498 renal
[3] = tested on: A549 NSCLC
[4] = tested on: ACHN renal
[5] = tested on: BT-549 breast
[6] = tested on: CAKI-1 renal
[7] = tested on: CCRF-CEM leukemia
[8] = tested on: COLO 205 colon
[9] = tested on: DU-145 prostate
[10] = tested on: EKVX NSCLC
[11] = tested on: HCC-2998 colon
[12] = tested on: HCT-116 colon
[13] = tested on: HCT-15 colon
[14] = tested on: HL-60(TB) leukemia
[15] = tested on: HOP-62 NSCLC
[16] = tested on: HOP-92 NSCLC
[17] = tested on: HS 578T breast
[18] = tested on: HT29 colon
[19] = tested on: IGROV1 ovarian
[20] = tested on: K-562 leukemia
[21] = tested on: KM12 colon
[22] = tested on: LOX IMVI melanoma
[23] = tested on: M14 melanoma
[24] = tested on: MALME-3M melanoma
[25] = tested on: MCF7 breast
[26] = tested on: MDA-MB-231 breast
[27] = tested on: MDA-MB-435
[28] = tested on: MOLT-4 leukemia
[29] = tested on: NCI-H226 lung
[30] = tested on: NCI-H23 lung
[31] = tested on: NCI-H460 lung
[32] = tested on: NCI-H522 lung
[33] = tested on: NCI/ADR-RES ovarian
[34] = tested on: OVCAR-3 ovarian
[35] = tested on: OVCAR-4 ovarian
[36] = tested on: OVCAR-5 ovarian
[37] = tested on: OVCAR-8 ovarian
[38] = tested on: PC-3 prostate
[39] = tested on: RPMI-8226 leukemia
[40] = tested on: RXF 393 renal
[41] = tested on: SF-268 CNS
[42] = tested on: SF-295 CNS
[43] = tested on: SF-539 CNS
[44] = tested on: SK-MEL-2 melanoma
[45] = tested on: SK-MEL-28 melanoma
[46] = tested on: SK-MEL-5 melanoma
[47] = tested on: SK-OV-3 ovarian
[48] = tested on: SN12C renal
[49] = tested on: SNB-75 CNS
[50] = tested on: SR leukemia
[51] = tested on: SW-620 colon
[52] = tested on: T-47D breast
[53] = tested on: U251 CNS
[54] = tested on: UACC-257 melanoma
[55] = tested on: UACC-62 melanoma
[56] = tested on: UO-31 renal

Question: `Cc1cc2ncnn2cc1Nc1ncc2c(n1)n(C1CCOCC1)c(=O)n2C` was tested. Which GI50 [1] did it give?
Answer: 8.29 µM

Question: What about the TGI [1] of the same compound?
Answer: 94.8 µM

Question: What about the GI50 [2] of the same compound?
Answer: 0.319 µM

Question: What about the TGI [2] of the same compound?
Answer: 2.22 µM

Question: And the GI50 [3]?
Answer: 7.22 µM

Question: What about the TGI [3] of the same compound?
Answer: > 100 µM

Question: And the GI50 [4]?
Answer: 9.97 µM

Question: And the TGI [4]?
Answer: > 100 µM

Question: And the GI50 [5]?
Answer: 2.83 µM

Question: What about the TGI [5] of the same compound?
Answer: 32.2 µM

Question: What about the GI50 [6] of the same compound?
Answer: 2.88 µM

Question: And the TGI [6]?
Answer: 52.2 µM

Question: What about the GI50 [7] of the same compound?
Answer: 4.04 µM

Question: What about the TGI [7] of the same compound?
Answer: > 100 µM

Question: What about the GI50 [8] of the same compound?
Answer: 4.93 µM

Question: And the TGI [8]?
Answer: > 100 µM

Question: And the GI50 [9]?
Answer: 6.92 µM

Question: And the TGI [9]?
Answer: > 100 µM

Question: What about the GI50 [10] of the same compound?
Answer: 10.8 µM

Question: And the TGI [10]?
Answer: > 100 µM

Question: What about the GI50 [11] of the same compound?
Answer: 6.56 µM

Question: And the TGI [11]?
Answer: > 100 µM

Question: What about the GI50 [12] of the same compound?
Answer: 10.7 µM

Question: What about the TGI [12] of the same compound?
Answer: > 100 µM

Question: What about the GI50 [13] of the same compound?
Answer: 8.23 µM

Question: And the TGI [13]?
Answer: > 100 µM

Question: What about the GI50 [14] of the same compound?
Answer: 23.3 µM

Question: What about the TGI [14] of the same compound?
Answer: > 100 µM

Question: What about the GI50 [15] of the same compound?
Answer: 3.95 µM

Question: What about the TGI [15] of the same compound?
Answer: 78.2 µM

Question: And the GI50 [16]?
Answer: 2.01 µM

Question: What about the TGI [16] of the same compound?
Answer: 18.8 µM

Question: And the GI50 [17]?
Answer: 2.84 µM

Question: What about the TGI [17] of the same compound?
Answer: 23.4 µM

Question: And the GI50 [18]?
Answer: 6.64 µM

Question: What about the TGI [18] of the same compound?
Answer: > 100 µM

Question: What about the GI50 [19] of the same compound?
Answer: 3.19 µM

Question: And the TGI [19]?
Answer: 25.5 µM

Question: What about the GI50 [20] of the same compound?
Answer: 16 µM

Question: And the TGI [20]?
Answer: > 100 µM

Question: What about the GI50 [21] of the same compound?
Answer: 14.5 µM

Question: What about the TGI [21] of the same compound?
Answer: > 100 µM

Question: What about the GI50 [22] of the same compound?
Answer: 5.92 µM

Question: And the TGI [22]?
Answer: > 100 µM

Question: What about the GI50 [23] of the same compound?
Answer: 11.2 µM

Question: What about the TGI [23] of the same compound?
Answer: > 100 µM

Question: What about the GI50 [24] of the same compound?
Answer: 2.49 µM

Question: And the TGI [24]?
Answer: 29.3 µM

Question: And the GI50 [25]?
Answer: 3.21 µM

Question: And the TGI [25]?
Answer: > 100 µM

Question: What about the GI50 [26] of the same compound?
Answer: 5.3 µM

Question: And the TGI [26]?
Answer: > 100 µM

Question: And the GI50 [27]?
Answer: 8.01 µM

Question: What about the TGI [27] of the same compound?
Answer: > 100 µM

Question: What about the GI50 [28] of the same compound?
Answer: 6.09 µM

Question: And the TGI [28]?
Answer: 52 µM

Question: What about the GI50 [29] of the same compound?
Answer: 7.32 µM

Question: And the TGI [29]?
Answer: > 100 µM

Question: What about the GI50 [30] of the same compound?
Answer: 14.3 µM

Question: What about the TGI [30] of the same compound?
Answer: > 100 µM

Question: What about the GI50 [31] of the same compound?
Answer: 4.74 µM

Question: What about the TGI [31] of the same compound?
Answer: > 100 µM

Question: What about the GI50 [32] of the same compound?
Answer: 3.74 µM

Question: And the TGI [32]?
Answer: > 100 µM

Question: What about the GI50 [33] of the same compound?
Answer: 19.9 µM

Question: What about the TGI [33] of the same compound?
Answer: > 100 µM

Question: And the GI50 [34]?
Answer: 6.22 µM

Question: And the TGI [34]?
Answer: 72 µM

Question: And the GI50 [35]?
Answer: 3.94 µM

Question: What about the TGI [35] of the same compound?
Answer: 42.9 µM

Question: What about the GI50 [36] of the same compound?
Answer: 5.81 µM

Question: What about the TGI [36] of the same compound?
Answer: > 100 µM

Question: What about the GI50 [37] of the same compound?
Answer: 11.5 µM

Question: What about the TGI [37] of the same compound?
Answer: > 100 µM

Question: And the GI50 [38]?
Answer: 2.73 µM

Question: What about the TGI [38] of the same compound?
Answer: > 100 µM

Question: And the GI50 [39]?
Answer: 4.41 µM

Question: And the TGI [39]?
Answer: > 100 µM

Question: And the GI50 [40]?
Answer: 3.73 µM

Question: What about the TGI [40] of the same compound?
Answer: 29.9 µM

Question: What about the GI50 [41] of the same compound?
Answer: 6.18 µM

Question: What about the TGI [41] of the same compound?
Answer: > 100 µM

Question: And the GI50 [42]?
Answer: 4.98 µM

Question: And the TGI [42]?
Answer: 48 µM

Question: And the GI50 [43]?
Answer: 9.63 µM

Question: What about the TGI [43] of the same compound?
Answer: 51.5 µM

Question: What about the GI50 [44] of the same compound?
Answer: 12.2 µM

Question: What about the TGI [44] of the same compound?
Answer: 71.5 µM

Question: And the GI50 [45]?
Answer: 5.71 µM

Question: What about the TGI [45] of the same compound?
Answer: 64.1 µM

Question: And the GI50 [46]?
Answer: 14 µM

Question: And the TGI [46]?
Answer: 29.2 µM

Question: What about the GI50 [47] of the same compound?
Answer: 2.15 µM

Question: And the TGI [47]?
Answer: 15.2 µM

Question: What about the GI50 [48] of the same compound?
Answer: 6.21 µM

Question: What about the TGI [48] of the same compound?
Answer: > 100 µM

Question: What about the GI50 [49] of the same compound?
Answer: 1.12 µM

Question: And the TGI [49]?
Answer: 6.96 µM

Question: And the GI50 [50]?
Answer: 3.42 µM

Question: And the TGI [50]?
Answer: 52.9 µM

Question: What about the GI50 [51] of the same compound?
Answer: 18.1 µM

Question: What about the TGI [51] of the same compound?
Answer: > 100 µM

Question: And the GI50 [52]?
Answer: 1.41 µM

Question: What about the TGI [52] of the same compound?
Answer: 6.42 µM

Question: What about the GI50 [53] of the same compound?
Answer: 14.1 µM

Question: What about the TGI [53] of the same compound?
Answer: > 100 µM

Question: And the GI50 [54]?
Answer: 7.52 µM

Question: And the TGI [54]?
Answer: 72.5 µM

Question: And the GI50 [55]?
Answer: 3.5 µM

Question: What about the TGI [55] of the same compound?
Answer: 29.3 µM

Question: What about the GI50 [56] of the same compound?
Answer: 2.83 µM

Question: And the TGI [56]?
Answer: > 100 µM
